Reference: patent publication US20100160454A1, “ANTIMICROBIAL AGENTS, COMPOSITIONS AND PRODUCTS CONTAINING THE SAME, AND METHODS OF USING THE COMPOSITIONS AND PRODUCTS” (Eastman Chemical Company, priority 2008, published 2010)

Experiments:
Test in all cases: Challenge testing against pathogenic fungi, growth rating in broth tubes
Type in all cases: cell-based
Parameters in all cases: key: 0: No visible growth; 1: Some growth in tube; 2: Moderate growth in tube; 3: Good growth in tube; 4: Extreme growth in tube
[1] = tested on: Malassezia furfur (ATCC 96809); conditions: Malassezia furfur
Experimental: (§1) Both Microsporum canis and Trichophyton rubrum were grown on Sabouraud dextrose broth, while Malassezia fufur was grown in Sabouraud dextrose broth supplemented with 2% (v/v) of olive oil and 0.2% (v/v) of Tween™ 80; incubation was at 22°±2° C. under continuous agitation by stirring for 10 days. The organisms were grown to a density of between 1.0×10^3 to 1.0×10^4 cfu/g. The actual inoculation cell density of these challenges were determined by diluting in sterile buffer water and (spread-plate method) plating for enumeration.
(§2) Challenge organisms were used to inoculate tubes of 1,4-CHDM-D90 test concentrations prepared in Sabouraud dextrose broth (or Sabouraud dextrose broth supplemented with olive oil-Tween™ 80 with M. furfur). The inoculations were in the amount of 1.5 mL aliquots of each culture with static incubation at 22±2° C. Subcultures were made at 3-, 14- and 30-day increments. All challenges were conducted in triplicate. In the case of M. canis, the growth response was assessed by the visual presence/absence of growth in the tubes; in the case of T. rubrum, a respiratory (redox) dye (0.2% w/v aqueous INT solution: 2-[4-iodophenyl)-3-4-nitrophenyl]-5-phenyl tetrazolium chloride) was added to the tubes, turning red if the organism was viable; and, finally, in the case of M. furfur, the growth response was assessed based upon pellicle formation in the tubes at the meniscus. The test formulations and challenge test results, as well as 30-day MICs (Minimum Inhibitory Concentration), are in Tables 7-9 for the three organisms using the following growth rating system:
(§3) • 0: No visible growth • 1: Some growth in tube • 2: Moderate growth in tube • 3: Good growth in tube • 4: Extreme growth in tube

[2] = tested on: Microsporum canis (ATTC 9084); conditions: Microsporum canis
Experimental: as §1, §2, §3

[3] = tested on: Trichophyton rubrum (ATCC 10218); conditions: Trichophyton rubrum
Experimental: as §1, §2, §3

[4] = test concentration 0.5%, 3 days
[5] = test concentration 0.5%, 14 days
[6] = test concentration 0.5%, 30 days
[7] = test concentration 1.25%, 3 days
[8] = test concentration 1.25%, 14 days
[9] = test concentration 1.25%, 30 days
[10] = test concentration 2.5%, 3 days
[11] = test concentration 2.5%, 14 days
[12] = test concentration 2.5%, 30 days

`OCC1CCC(CO)CC1` (stereo not drawn) [1,4-CHDM-D90, 1,4-cyclohexanedimethanol] was tested, and the “Growth Rating” value [1, 4] was 0, the “Growth Rating” value [1, 5] was 1 and the “Growth Rating” value [1, 6] was 2. The “Growth Rating” value [1, 7] was 0/0/0, the “Growth Rating” value [1, 8] was 0/0/0 and the “Growth Rating” value [1, 9] was 0/0/0. For the same compound, the “Growth Rating” value [1, 10] was 0/0/0, the “Growth Rating” value [1, 11] was 0/0/0 and the “Growth Rating” value [1, 12] was 0/0/0. For the same compound, the “Growth Rating” value ([1]; test concentration 5%, 3 days) was 0/0/0, the “Growth Rating” value ([1]; test concentration 5%, 14 days) was 0/0/0 and the “Growth Rating” value ([1]; test concentration 5%, 30 days) was 0/0/0. The “Growth Rating” value [2, 4] was 2, the “Growth Rating” value [2, 5] was 1 and the “Growth Rating” value [2, 6] was 1. The “Growth Rating” value [2, 7] was 2, the “Growth Rating” value [2, 8] was 1 and the “Growth Rating” value [2, 9] was 1. For the same compound, the “Growth Rating” value [2, 10] was 2, the “Growth Rating” value [2, 11] was 0 and the “Growth Rating” value [2, 12] was 0. For the same compound, the “Growth Rating” value ([2]; test concentration 5%, 3 days) was 0/0/0, the “Growth Rating” value ([2]; test concentration 5%, 14 days) was 0/0/0 and the “Growth Rating” value ([2]; test concentration 5%, 30 days) was 0/0/0. The “Growth Rating” value [3, 4] was 1/1/1, the “Growth Rating” value [3, 5] was 1/1/1 and the “Growth Rating” value [3, 6] was 1/1/1. The “Growth Rating” value [3, 7] was 0/0/0, the “Growth Rating” value [3, 8] was 0/0/0 and the “Growth Rating” value [3, 9] was 0/0/0. The “Growth Rating” value [3, 10] was 0/0/0, the “Growth Rating” value [3, 11] was 0/0/0 and the “Growth Rating” value [3, 12] was 0/0/0. For the same compound, the “Growth Rating” value ([3]; test concentration 5%, 3 days) was 1, the “Growth Rating” value ([3]; test concentration 5%, 14 days) was 0 and the “Growth Rating” value ([3]; test concentration 5%, 30 days) was 0.
